Patent US20160030407A1, “Method of Treating Inflammatory Lung Disease” (priority 2010, published 2016)
Where “and” joins values, the source holds several entries; their conditions need not be identical. Identical values can stand only once.

Assays:
BACE-1 = BACE-1 protein expression in SHSY cells (Western blot); type: cell-based, human; conditions: 24 hours, corrected for actin
[1] = tested on: antibodies against thyroglobulin; assay: Autoimmune thyroiditis model (Example 16B): thyroglobulin antibodies; type: in vivo, CBA/J mice; conditions: 0.05 mg/ml in drinking water; day 21
Description: In another experiment, eighteen CBA/J female mice were immunized with mouse thyroglobulin, emulsified in complete Freund's adjuvant, on day 0 and day 7. One group of mice (n=10) drank regular water. […] Mice were sacrificed 21 days after the first immunization to collect the thyroid gland and the blood. The thyroid was analyzed for the presence of infiltrating mononuclear cells. The blood was analyzed for the levels of antibodies against thyroglobulin.

[2] = Single i.v. dose toxicity: clinical chemistry; type: in vivo, Sprague-Dawley rats
Text: On day 15, urine was collected on all surviving animals for urinalysis. The animals were euthanized and bled via cardiac puncture. Blood was collected for hematology, clinical chemistry, and coagulation analysis. Tissues were collected, weighed, and stored in 10% neutral-buffered formalin for possible future analysis.

[3] = Treatment of a patient with autism and a seizure disorder; type: in vivo, human; conditions: one patient, 1.0 mg three times per day
Text: A patient, who was diagnosed with autism and a seizure disorder, had brain surgery and began rehabilitation the following month.

nAChR α3/β4 [4] = biological target: T1, nAChR α3/β4 (Homo sapiens, UniProt P30926+P32297); assay: nAChR α3/β4 channel agonist assay (FLIPR); type: cell-based; conditions: 0.3-1000 μM
T1 sequence (P32297 32-505): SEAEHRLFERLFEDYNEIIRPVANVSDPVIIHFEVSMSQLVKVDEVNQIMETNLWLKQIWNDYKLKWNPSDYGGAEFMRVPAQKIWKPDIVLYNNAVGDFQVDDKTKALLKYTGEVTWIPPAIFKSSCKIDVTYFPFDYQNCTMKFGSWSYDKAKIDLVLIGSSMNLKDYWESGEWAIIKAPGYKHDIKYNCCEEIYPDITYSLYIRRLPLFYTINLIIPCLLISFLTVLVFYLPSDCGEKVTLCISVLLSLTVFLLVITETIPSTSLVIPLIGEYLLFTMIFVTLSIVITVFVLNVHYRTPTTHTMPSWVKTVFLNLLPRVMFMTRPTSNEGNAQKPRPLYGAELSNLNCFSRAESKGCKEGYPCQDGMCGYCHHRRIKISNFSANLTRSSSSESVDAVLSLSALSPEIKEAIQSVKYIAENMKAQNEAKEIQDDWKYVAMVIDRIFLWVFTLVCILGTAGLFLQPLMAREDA
T1 sequence (P30926 22-498): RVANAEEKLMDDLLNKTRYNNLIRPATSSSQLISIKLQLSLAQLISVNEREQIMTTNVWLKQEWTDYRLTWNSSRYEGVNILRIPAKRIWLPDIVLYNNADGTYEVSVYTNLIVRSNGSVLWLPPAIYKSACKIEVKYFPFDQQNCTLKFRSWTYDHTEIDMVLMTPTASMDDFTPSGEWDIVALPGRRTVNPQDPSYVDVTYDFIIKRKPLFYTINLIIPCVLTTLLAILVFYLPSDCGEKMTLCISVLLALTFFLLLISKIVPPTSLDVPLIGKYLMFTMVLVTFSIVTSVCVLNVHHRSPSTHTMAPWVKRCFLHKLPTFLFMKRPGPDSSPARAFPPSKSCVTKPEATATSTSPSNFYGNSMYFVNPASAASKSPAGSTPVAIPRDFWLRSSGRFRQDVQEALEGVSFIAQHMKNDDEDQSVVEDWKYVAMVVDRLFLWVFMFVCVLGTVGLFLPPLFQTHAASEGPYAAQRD
Description: (§1) Briefly, cells were incubated with […] dye for 30 min at 37° C.

nAChR α3/β4 [5] = biological target: T1, nAChR α3/β4; assay: cell-based; conditions: read-out: Normalized % Inhibition
Description: as §1

[6] = 0.1 mg/kg anatabine, nicotine 0.75 mg/kg
[7] = 0.1 mg/kg, gender F, group mean
[8] = 0.1 mg/kg, gender M, group mean
[9] = 0.75 mg/kg, gender F, group mean
[10] = 0.75 mg/kg, gender M, group mean
[11] = Anatabine 0.1 mg/kg single i.v. dose, female rats, individual animals B6-B10
[12] = Anatabine 0.1 mg/kg single i.v. dose, male rats, individual animals B1-B5
[13] = Anatabine 0.1 mg/kg, M, Mean, n 5
[14] = Anatabine 0.75 mg/kg single i.v. dose, female rats, individual animals C6-C10
[15] = Anatabine 0.75 mg/kg single i.v. dose, male rats, individual animals C1-C5
[16] = Anatabine 0.75 mg/kg, F, Mean, n 5

C1=CCC(c2cccnc2)NC1 (racemic) [Anatabine, 1,2,3,6-tetrahydro-[2,3′]bipyridinyl]
BACE-1 protein expression (BACE-1): reduced BACE expression | levels of thyroglobulin antibodies [1]: no effect on the levels of thyroglobulin antibodies | globulins vs vehicle controls, females [2, 6]: slightly higher | total protein vs vehicle controls, females [2, 6]: somewhat higher | AST [2, 7]: 77.00 IU/L | DIR BILIRUBIN [2, 7]: 0.00 mg/dL | TOT BILIRUBIN [2, 7]: 0.00 mg/dL | AST [2, 8]: 96.00 IU/L | BUN [2, 8]: 18.00 mg/dL | DIR BILIRUBIN [2, 8]: 0.00 mg/dL | TOT BILIRUBIN [2, 8]: 0.00 mg/dL | TOT PROTEIN [2, 8]: 6.10 g/dL | DIR BILIRUBIN [2, 9]: 0.00 mg/dL | TOT BILIRUBIN [2, 9]: 0.00 mg/dL | DIR BILIRUBIN [2, 10]: 0.02 mg/dL | TOT BILIRUBIN [2, 10]: 0.02 mg/dL | ALBUMIN [2, 11]: 3.6 g/dL (3×) and 3.5 g/dL and 3.8 g/dL | ALK PHOSPHATASE [2, 11]: 140 IU/L and 220 IU/L | ALT [2, 11]: 57 IU/L and 43 IU/L and 47 IU/L and 62 IU/L and 39 IU/L | AST [2, 11]: 78 IU/L and 69 IU/L and 70 IU/L and 86 IU/L and 82 IU/L | BUN [2, 11]: 21 mg/dL (2×) and 19 mg/dL (3×) | CHLORIDE [2, 11]: 99 mEq/L and 97 mEq/L | CHOLESTEROL [2, 11]: 90 mg/dL and 74 mg/dL and 65 mg/dL and 66 mg/dL and 87 mg/dL | CREATININE [2, 11]: 0.4 mg/dL (3×) and 0.5 mg/dL (2×) | DIR BILIRUBIN [2, 11]: 0 mg/dL | GLOBULIN [2, 11]: 3.1 g/dL (3×) and 3 g/dL | GLUCOSE [2, 11]: 170 mg/dL and 220 mg/dL | PHOSPHORUS [2, 11]: 8.5 mg/dL (2×) and 8.2 mg/dL and 7.4 mg/dL and 7.8 mg/dL | POTASSIUM [2, 11]: 5.4 mEq/L and 6.3 mEq/L and 5.2 mEq/L and 5.5 mEq/L and 6.7 mEq/L | TOT BILIRUBIN [2, 11]: 0 mg/dL | TOT PROTEIN [2, 11]: 6.7 g/dL (2×) and 6.3 g/dL and 6.9 g/dL and 6.6 g/dL | ALBUMIN [2, 12]: 3.4 g/dL (2×) and 3.2 g/dL and 3.1 g/dL (2×) | ALK PHOSPHATASE [2, 12]: 470 IU/L | ALT [2, 12]: 92 IU/L and 65 IU/L and 74 IU/L and 44 IU/L and 78 IU/L | AST [2, 12]: 97 IU/L and 99 IU/L and 93 IU/L and 85 IU/L | BUN [2, 12]: 18 mg/dL (2×) and 21 mg/dL and 14 mg/dL and 19 mg/dL | CHLORIDE [2, 12]: 98 mEq/L and 97 mEq/L (2×) and 99 mEq/L (2×) | CHOLESTEROL [2, 12]: 65 mg/dL and 64 mg/dL and 75 mg/dL and 56 mg/dL and 76 mg/dL | CREATININE [2, 12]: 0.4 mg/dL (3×) and 0.3 mg/dL (2×) | DIR BILIRUBIN [2, 12]: 0 mg/dL | GLOBULIN [2, 12]: 2.9 g/dL (2×) and 2.6 g/dL and 3.1 g/dL | GLUCOSE [2, 12]: 210 mg/dL | POTASSIUM [2, 12]: 5.9 mEq/L and 6.5 mEq/L and 6.6 mEq/L and 6.9 mEq/L and 6.1 mEq/L | TOT BILIRUBIN [2, 12]: 0 mg/dL | TOT PROTEIN [2, 12]: 6.3 g/dL (2×) and 5.8 g/dL and 5.9 g/dL and 6.2 g/dL | CREATININE ([2]; Anatabine 0.1 mg/kg, F, Mean, n 5): 0.44 mg/dL | CHLORIDE [2, 13]: 98.00 mEq/L | CREATININE [2, 13]: 0.36 mg/dL | POTASSIUM [2, 13]: 6.40 mEq/L | ALBUMIN [2, 14]: 3.5 g/dL (2×) and 3.6 g/dL (2×) and 3.4 g/dL | ALK PHOSPHATASE [2, 14]: 130 IU/L and 160 IU/L | ALT [2, 14]: 63 IU/L and 49 IU/L (2×) and 55 IU/L and 57 IU/L | AST [2, 14]: 95 IU/L and 69 IU/L and 76 IU/L and 54 IU/L and 72 IU/L | BUN [2, 14]: 15 mg/dL (3×) and 16 mg/dL (2×) | CHLORIDE [2, 14]: 97 mEq/L (2×) and 96 mEq/L and 99 mEq/L | CHOLESTEROL [2, 14]: 66 mg/dL and 64 mg/dL and 63 mg/dL and 69 mg/dL and 87 mg/dL | CREATININE [2, 14]: 0.5 mg/dL (2×) and 0.4 mg/dL (3×) | DIR BILIRUBIN [2, 14]: 0 mg/dL | GLOBULIN [2, 14]: 2.7 g/dL and 3 g/dL (2×) | PHOSPHORUS [2, 14]: 9.7 mg/dL and 7.7 mg/dL and 9.6 mg/dL and 9.2 mg/dL and 7 mg/dL | POTASSIUM [2, 14]: 5.5 mEq/L and 5.9 mEq/L and 6 mEq/L and 5.7 mEq/L and 6.3 mEq/L | TOT BILIRUBIN [2, 14]: 0 mg/dL | TOT PROTEIN [2, 14]: 6.3 g/dL (2×) and 6.2 g/dL and 6.6 g/dL and 6.5 g/dL | ALBUMIN [2, 15]: 3.4 g/dL (2×) and 3.1 g/dL and 3.2 g/dL and 3.3 g/dL | ALT [2, 15]: 75 IU/L and 57 IU/L and 65 IU/L and 50 IU/L and 87 IU/L | AST [2, 15]: 66 IU/L and 97 IU/L and 90 IU/L and 92 IU/L | BUN [2, 15]: 15 mg/dL and 18 mg/dL and 12 mg/dL and 17 mg/dL and 21 mg/dL | CHLORIDE [2, 15]: 98 mEq/L and 99 mEq/L (2×) and 100 mEq/L and 97 mEq/L | CHOLESTEROL [2, 15]: 69 mg/dL (2×) and 60 mg/dL and 54 mg/dL and 62 mg/dL | CREATININE [2, 15]: 0.4 mg/dL (3×) and 0.3 mg/dL (2×) | DIR BILIRUBIN [2, 15]: 0 mg/dL (4×) and 0.1 mg/dL | GLOBULIN [2, 15]: 2.6 g/dL and 2.7 g/dL and 2.9 g/dL | GLUCOSE [2, 15]: 160 mg/dL | PHOSPHORUS [2, 15]: 11 mg/dL and 10 mg/dL | POTASSIUM [2, 15]: 6.3 mEq/L (2×) and 5.4 mEq/L and 6 mEq/L and 6.6 mEq/L | SODIUM [2, 15]: 150 mEq/L | TOT BILIRUBIN [2, 15]: 0 mg/dL (4×) and 0.1 mg/dL | TOT PROTEIN [2, 15]: 6.2 g/dL and 5.7 g/dL and 5.9 g/dL and 6.1 g/dL and 6.3 g/dL | CHLORIDE [2, 16]: 98.00 mEq/L | CREATININE [2, 16]: 0.44 mg/dL | CREATININE ([2]; Anatabine 0.75 mg/kg, M, Mean, n 5): 0.36 mg/dL | globulins vs vehicle controls, males ([2]; all anatabine dose levels, nicotine 0.75 mg/kg): marginally higher | total protein vs vehicle controls, males ([2]; all anatabine treatment groups, nicotine 0.75 mg/kg): slightly increased | albumin levels vs control ([2]; males 0.75 and […], females 0.1 and 0.75 mg/kg anatabine): slight increases in albumin levels | cognitive benefits [3]: improved communication and language skills and the ability to focus | frequency of seizures ([3]; over 3 weeks): decreased from one per day to approximately one per week | agonist activity (nAChR α3/β4 [4]): showed agonist activity

CN1CCCC1c1cccnc1.O=C(O)C(O)C(O)C(=O)O (single isomer, unassigned; (-)) [Nicotine, (−) Nicotine hydrogen tartrate, reference compound]
inhibition at 0.3 µM (nAChR α3/β4 [5]): 19.1% | inhibition at 1 µM (nAChR α3/β4 [5]): 19% | inhibition at 10 µM (nAChR α3/β4 [5]): 95.8% | inhibition at 30 µM (nAChR α3/β4 [5]): 139% | inhibition at 100 µM (nAChR α3/β4 [5]): 145% | inhibition at 300 µM (nAChR α3/β4 [5]): 144% | inhibition at 1000 µM (nAChR α3/β4 [5]): 142%
